Where two headings read alike, the source gives them in different places.
Columns and labels:
[1] = target: T1, stromelysin-1 catalytic domain (MMP03) (Homo sapiens, UniProt P08254); experiment: Thiopeptolide assay, stromelysin-1 catalytic domain (SCD, MMP03); type: biochemical
T1 construct: SCD (stromelysin-1 catalytic domain); made in house; host or cells: Escherichia coli

MMP13 = experiment: Thiopeptolide assay, MMP13; type: biochemical, human; conditions: Table 1
Method: MMP01, MMP07, MMP09, and MMP13 activity was assayed in a method similar to MMP02 and MMP03 (SCD and GCD). MMP01 and MMP09 can be obtained from Washington University School of Medicine, St. Louis, Mo. MMP07 can be obtained in accordance with the known procedure set forth by Ye QZ, Johnson L. L., and Baragi V., "Gene Syntheses and Expression in E. coli for PUMP, a Human Matrix Metalloproteinase" Biochem. and Biophys. […] MMP 13 can be obtained in accordance with the known procedure set forth by Freije J. M. P., et al., "Molecular Cloning and Expression of Collegenase-3, a Novel Human Matrix Metalloproteinase Produced by Breast Carcinomas" J. Bio.
Hydrolysis of the thiopeptolide substrate Ac-Pro-Leu-Gly-thioester-Leu-Leu-Gly-OEt (Bachem) is used as the primary screen to determine IC50 values for MMP inhibitors. A 100 μL reaction contains 1 mM 5,5'-dithiobis(2-nitrobenzoic acid) (DTNB), 100 μM substrate, 0.1% Brij, enzyme, and inhibitor in the appropriate reaction buffer. Activated full-length enzymes are assayed at 5 nM, Stromelysin Catalytic Domain (SCD) at 10 nM, and Gelatinase A Catalytic Domain (GaCD) at 1 nM. Inhibitors are screened from 100 μM to 1 nM. Full-length enzymes are assayed in 50 mM HEPES, 10 mM CaCl2, pH 7.0; SCD in 50 mM MES, 10 mM CaCl2, pH 6.0; and GaCD in 50 mM MOPS, 10 mM CaCl2, 10 μM ZnCl2, pH 7.0.

[2] = target: gelatinase A catalytic domain (MMP02); experiment: Thiopeptolide assay, gelatinase A catalytic domain (GCD, MMP02); type: biochemical
MMP01 = target: T2, MMP01 (Homo sapiens, UniProt P03956); experiment: Thiopeptolide assay, MMP01; type: biochemical
T2 construct: purchased Washington University School of Medicine, St. Louis, Mo
T2 sequence (P03956 100-469): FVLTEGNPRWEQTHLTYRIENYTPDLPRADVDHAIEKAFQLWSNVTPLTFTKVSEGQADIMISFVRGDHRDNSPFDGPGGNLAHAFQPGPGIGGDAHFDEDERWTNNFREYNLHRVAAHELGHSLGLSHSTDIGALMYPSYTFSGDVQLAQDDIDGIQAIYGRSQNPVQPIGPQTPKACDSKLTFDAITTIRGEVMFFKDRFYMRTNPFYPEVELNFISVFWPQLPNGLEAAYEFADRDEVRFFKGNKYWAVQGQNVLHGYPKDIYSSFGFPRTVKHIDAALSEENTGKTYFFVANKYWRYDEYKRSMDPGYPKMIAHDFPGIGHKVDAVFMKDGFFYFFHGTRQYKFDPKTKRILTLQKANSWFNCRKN

MMP09 = target: T3, MMP09 (Homo sapiens, UniProt P14780); experiment: Thiopeptolide assay, MMP09; type: biochemical; conditions: Table 1
T3 construct: purchased Washington University School of Medicine, St. Louis, Mo
Method: IC50 values were determined using a thiopeptolide substrate, Ac-Pro-Leu-Gly-thioester-Leu-Leu-Gly-OEt (Ye Q.-Z., Johnson L. L., Hupe D. J., and Baragi V., "Purification and Characterization of the Human Stromelysin Catalytic Domain Expressed in Escherichia coli," Biochemistry, 1992;31:11231-11235). MMP01, MMP07, MMP09, and MMP13 activity was assayed in a method similar to MMP02 and MMP03 (SCD and GCD). MMP01 and MMP09 can be obtained from Washington University School of Medicine, St. Louis, Mo. MMP07 can be obtained in accordance with the known procedure set forth by Ye QZ, Johnson L. L., and Baragi V., "Gene Syntheses and Expression in E. coli for PUMP, a Human Matrix Metalloproteinase" Biochem. and Biophys. Res. Comm., 1992; 186:143-149. MMP 13 can be obtained in accordance with the known procedure set forth by Freije J. M. P., et al., "Molecular Cloning and Expression of Collegenase-3, a Novel Human Matrix Metalloproteinase Produced by Breast Carcinomas" J. Bio. Chem., 1994;269:16766-6773.
Hydrolysis of the thiopeptolide substrate Ac-Pro-Leu-Gly-thioester-Leu-Leu-Gly-OEt (Bachem) is used as the primary screen to determine IC50 values for MMP inhibitors. […] The change in absorbance at 405 riM is monitored on a ThermoMax microplate reader at room temperature continuously for 20 minutes.

MMP07 = target: T4, MMP07 (Homo sapiens, UniProt P09237); experiment: Thiopeptolide assay, MMP07; type: biochemical
T4 construct: made in house; host or cells: Escherichia coli
T4 sequence (P09237 95-267): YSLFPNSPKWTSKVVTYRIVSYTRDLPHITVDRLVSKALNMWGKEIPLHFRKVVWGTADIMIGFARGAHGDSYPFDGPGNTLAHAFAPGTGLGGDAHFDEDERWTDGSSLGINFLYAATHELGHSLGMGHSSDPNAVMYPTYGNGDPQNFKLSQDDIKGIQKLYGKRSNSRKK

[3] = tested on: experimental allergic encephalomyelitis (EAE); conditions: Gijbels, et al., J. Clin. Invest., 1994; cited from earlier work
[4] = tested on: human ovarian carcinoma xenografts; conditions: Davies, et al., Cancer Res., 1993; cited from earlier work
[5] = MMP Inhibitor Bioassay (plasma levels after gavage); type: in vivo; conditions: rat, po, 50 mg/kg by gavage
Method: Animals are dosed by gavage with either vehicle or compound at 2, 10, or 50 mg/kg. Blood samples are collected from 3-4 animals from each dosing group at 1, 2, 4, 6, and 24 hour postdose, centrifuged, and the plasma immediately frozen at -20° C. Plasma protein is precipitated with an equal volume of acetonitrile and separated by centrifugation at room temperature. The supernate is evaporated to dryness and reconstituted to the original plasma volume with 50 mM Tris, pH 7.6. Ten-fold serial dilutions of the reconstituted plasma samples are prepared in 50 mM Tris, pH 7.6 for dose response assays using the appropriate thiopeptolide assay. The concentration of plasma which yields 50% inhibition of enzyme is determined and used to calculate the inhibitor plasma level from the known IC50 value. […] All control samples are subjected to acetonitrile precipitation and analyzed with the thiopeptolide assay.

MMP-13CD = experiment: Thiopeptolide assay, MMP-13CD; type: biochemical, human; conditions: Tables 2, 3, 5, 7
[6] = tested on: bovine nasal and pig articular cartilage; conditions: Andrews et al. 1992; Ellis et al. 1994; cited from earlier work
[7] = Table 1, SCD, read-out: IC50 MMP03
[8] = Table 1, GCD, read-out: IC50 MMP02
[9] = Tables 2, 3, 5, 7, read-out: IC50 MMP 3CD
[10] = Tables 2, 3, 5, 7, read-out: IC50 MMP-2CD
[11] = Tables 2, 3, 5, 7, read-out: IC50 MMP1
[12] = Tables 2, 3, 5, 7, read-out: IC50 MMP-7

T1 sequence (P08254 100-272 limits assumed): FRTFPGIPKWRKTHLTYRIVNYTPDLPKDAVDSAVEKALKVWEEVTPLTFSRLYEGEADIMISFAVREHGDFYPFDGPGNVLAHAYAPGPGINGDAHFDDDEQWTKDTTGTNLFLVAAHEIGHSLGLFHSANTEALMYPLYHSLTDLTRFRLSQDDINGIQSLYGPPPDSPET
T3 sequence (P14780 107-707 limits assumed): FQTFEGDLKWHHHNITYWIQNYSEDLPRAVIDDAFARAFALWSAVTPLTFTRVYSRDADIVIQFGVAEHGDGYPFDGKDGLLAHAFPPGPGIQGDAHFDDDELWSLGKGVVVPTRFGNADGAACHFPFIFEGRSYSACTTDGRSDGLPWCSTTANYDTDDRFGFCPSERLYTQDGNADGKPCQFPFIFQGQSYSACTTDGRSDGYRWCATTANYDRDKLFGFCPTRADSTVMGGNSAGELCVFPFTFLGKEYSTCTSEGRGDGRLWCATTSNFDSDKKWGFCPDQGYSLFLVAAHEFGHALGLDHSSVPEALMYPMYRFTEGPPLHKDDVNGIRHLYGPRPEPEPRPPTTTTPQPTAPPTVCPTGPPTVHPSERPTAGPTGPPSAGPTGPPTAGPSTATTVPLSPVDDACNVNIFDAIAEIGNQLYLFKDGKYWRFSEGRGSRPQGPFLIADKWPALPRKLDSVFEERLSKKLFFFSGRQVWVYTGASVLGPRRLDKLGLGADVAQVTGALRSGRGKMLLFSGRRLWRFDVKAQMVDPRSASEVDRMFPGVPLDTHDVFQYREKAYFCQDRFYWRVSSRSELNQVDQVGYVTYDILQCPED

| Compound | IC50 [1, 7] | IC50 (MMP13) | IC50 [2, 8] | IC50 (MMP01; Table 1, read-out: IC50 MMP01) | IC50 (MMP07; Table 1, read-out: IC50 MMP07) | IC50 [1, 9] | IC50 [2, 10] | IC50 (MMP01; [11]) | IC50 (MMP-13CD) | IC50 (MMP07; [12]) | further results |
| --- | --- | --- | --- | --- | --- | --- | --- | --- | --- | --- | --- |
| CNC(=O)[C@H](Cc1c[nH]c2ccccc12)NC(=O)[C@@H](CC(=O)NO)CC(C)C [GM6001] | – | – | – | – | – | – | – | – | – | – | effect on EAE [3]: suppressed the development or reversed the clinical expression of experimental allergic encephalomyelitis (EAE) in a dose dependent manner |
| 2-(Dibenzofuran-2-sulfonylamino)-pentanedioic acid 1-tert-butyl Ester [Example 4] | 0.46 µM | 0.35 µM | 0.12 µM | 91 µM | 3.7 µM | – | – | – | – | – | – |
| CNC(=O)[C@H](Cc1ccccc1)NC(=O)[C@H](CC(C)C)[C@H](CSc1cccs1)C(=O)NO [BB-94] | – | – | – | – | – | – | – | – | – | – | survival [4]: prolonged the survival of mice; tumor burden [4]: decreased the tumor burden |
| O=C(CC[C@H](NS(=O)(=O)c1ccc2oc3ccccc3c2c1)C(=O)O)NCCc1ccccc1 [Example 5, 2-(Dibenzofuran-2-sulfonylamino)-4-phenethylcarbamoyl-butyric acid] | 0.325 µM | 0.28 µM | 0.076 µM | 39 µM | 6.55 µM | – | – | – | – | – | – |
| CCCc1ccc(C(=O)CC(NS(=O)(=O)c2ccc3oc4ccccc4c3c2)C(=O)O)cc1 (stereo not drawn) [Example 6] | 3.7 µM | 7.1 µM | 2.4 µM | 100 µM | 87 µM | – | – | – | – | – | – |
| O=C(O)[C@H](CCc1ccccc1)NS(=O)(=O)c1ccc2oc3ccccc3c2c1 [Example 1, (S)-2-(Dibenzofuran-2-sulfonylamino)-4-phenyl-butyric acid] | – | – | 0.27 µM | 47 µM | – | – | – | – | – | – | IC50 (MMP09): 67 µM; concentration at 24 h ([5]; 24 hours, read-out: plasma levels at 24 hours postdose): 29 µM; Cmax ([5]; at 1 to 4 hours, read-out: peak plasma levels): 71 µM; Tmax ([5]; read-out: time of peak plasma levels): 1 to 4 h |
| TIMP-1: TIMP-1; TIMPs are natural endogenous inhibitors of MMPs | – | – | – | – | – | – | – | – | – | – | formation of collagen fragments [6]: prevented the formation of collagen fragments |

Now from value to compound, other results behind:

| IC50 [1, 7] | IC50 (MMP13) | IC50 [2, 8] | IC50 (MMP01; Table 1, read-out: IC50 MMP01) | IC50 (MMP07; Table 1, read-out: IC50 MMP07) | IC50 [1, 9] | IC50 [2, 10] | IC50 (MMP01; [11]) | IC50 (MMP-13CD) | IC50 (MMP07; [12]) | Compound | further results |
| --- | --- | --- | --- | --- | --- | --- | --- | --- | --- | --- | --- |
| 0.0465 µM | 0.33 µM | 0.024 µM | 49.5 µM | 2.55 µM | – | – | – | – | – | O=C(O)[C@H](CCc1ccccc1)NS(=O)(=O)c1ccc2c(c1)Cc1ccccc1-2 [Example 9, (S)-2-(9H-Fluorene-2-sulfonylamino)-4-phenyl-butyric acid] | IC50 (MMP09): 100 µM |
| 0.013 µM | 0.032 µM | 0.0038 µM | 3.5 µM | 1.2 µM | – | – | – | – | – | O=C(O)[C@H](CCc1ccccc1)NS(=O)(=O)c1ccc2c(c1)oc1ccccc12 [Example 8] | – |
| 1.3 µM | 5.8 µM | 0.78 µM | 100 µM | 82 µM | – | – | – | – | – | O=C(O)[C@H](CCc1ccccc1)NS(=O)(=O)c1ccc2sc3ccccc3c2c1 [Example 7, 2-(Dibenzothiophene-2-sulfonylamino)-4phenyl-butyric acid] | – |
| – | – | – | – | – | 1.4 µM | 0.6 µM | > 100 µM | 4.2 µM | > 100 µM | O=C(O)C(CCCCNC(=O)C1(c2ccccc2)CC1)NS(=O)(=O)c1ccc2oc3ccccc3c2c1 (stereo not drawn) [Example A38, 2-(Dibenzofuran-2-sulfonylamino)-6-(1-phenyl-cyclopropanecarbonylamino)-hexanoic acid] | – |
| – | – | – | – | – | 9 µM | 3.1 µM | > 100 µM | 4.4 µM | > 100 µM | O=C(O)C(CCCCNC(=S)NC12CC3CC(CC(C3)C1)C2)NS(=O)(=O)c1ccc2oc3ccccc3c2c1 (stereo not drawn) [Example B6, 6-(3-Adamantan-1-yl-thioureido)-2-(dibenzofuran-2-sulfonylamino)-hexanoic acid] | – |
| – | – | – | – | – | 5.2 µM | 1.8 µM | > 100 µM | 5.2 µM | > 100 µM | COc1ccccc1CCC(=O)NCCCCC(NS(=O)(=O)c1ccc2oc3ccccc3c2c1)C(=O)O (stereo not drawn) [Example A25] | – |
| – | – | – | – | – | 8.8 µM | 2.7 µM | > 100 µM | 14.2 µM | > 100 µM | COc1ccc(NC(=O)NCCCCC(NS(=O)(=O)c2ccc3oc4ccccc4c3c2)C(=O)O)cc1 (stereo not drawn) [Example B1, 2-(Dibenzofuran-2-sulfonylamino)-6-[3-(4-methoxy-phenyl)-ureido]-hexanoic acid] | – |
| – | – | – | – | – | 1.8 µM | 0.3 µM | > 100 µM | 0.6 µM | 36.9 µM | COc1ccccc1CNC(=O)CCC(NS(=O)(=O)c1ccc2oc3ccccc3c2c1)C(=O)O (stereo not drawn) [Example F15, 2-(Dibenzofuran-2-sulfonylamino)-4-(2-methoxy-benzylcarbamoyl)-butyric acid] | – |

Reference: patent US6294674A, “Dibenzofuran sulfonamide matrix metalloproteinase inhibitors” (priority 1999, dated 2001)
